Values joined by “and” are separate entries in the source; they are usually repeats but may differ in a detail not shown here. Equal values may be shown once.
Legend:
[1] = tested on: MYPT1 Ser445 phosphorylation; assay: MYPT1 Ser445 phosphorylation on EDTA-induced detachment, HEK-293; format: cell-based, human; conditions: HEK-293, 16 h; for Suppression of MYPT1 Ser445 phosphorylation (in words): HTH-01-015 at 10 μM
Procedure: HEK (human embryonic kidney)-293 and U2OS cells were cultured in DMEM (Dulbecco's modified Eagle's medium) supplemented with 10% FBS, 2 mM glutamine and 1×antibacterial/antimycotic solution. NUAK1^+/+ and NUAK1^−/− MEFs were cultured in DMEM supplemented with 10% (v/v) FBS and 2 mM glutamine, 1×antibacterial/antimycotic solution, 1% (v/v) non-essential amino acids and 1% (v/v) sodium pyruvate. HEK-293 Flp/In T-Rex cell lines were cultured in DMEM supplemented with 10% (v/v) FBS and 2 mM glutamine, 1×antibacterial/antimycotic solution, 100 μg/ml hygromycin and 15 μg/ml blasticidin. Supplementing the culture medium with 0.1 μg/ml doxycycline for 16–24 h induced protein expression in the HEK-293 Flp/In T-Rex cells. Cell counting was carried out using Invitrogen Countess following the manufacturer's protocol. A cell-detachment assay was carried out on HEK-293 cells using PBS-EDTA-based cell dissociation buffer as described previously. An inhibitor dose-dependence assay was carried out by treating the cells with various concentrations of the inhibitors as indicated in the Figure legends. The inhibitors were dissolved in DMSO and the total concentration of DMSO in the culture media never exceeded 1%. Transient transfections of HEK-293 cells were carried out using PEI [24]. Stable transfections were carried out in HEK-293 Flp/In T-Rex cells (Invitrogen) following the manufacturer's protocol. Lentivirus-mediated knock down of NUAK1 was carried out in U2OS cells using shRNA constructs as described previously. Post-treatment and/or transfection, cells were lysed in lysis buffer containing 50 mM Tris/HCl (pH 7.5), 1 mM EGTA, 1 mM EDTA, 1% Triton X-100, 50 mM NaF, 10 mM sodium 2-glycerophosphate, 5 mM sodium pyrophosphate, 1 mM sodium orthovanadate, 0.27 M sucrose, 1 mM benzamidine (added before lysis), 1 mM PMSF (added before lysis) and 0.1% 2-mercaptoethanol (added before lysis). Lysates were clarified by centrifugation at 16000 g for 15 min at 4°C and either used for further experiments or snap-frozen in liquid nitrogen and stored at −80°C. Protein estimation was carried out using the Bradford method with BSA as a standard.
Figure 5 HTH-01-015 and WZ4003 inhibit MYPT1 Ser^445 phosphorylation in vivo (A) HEK-293 cells were treated in the absence (DMSO) or presence of the indicated concentrations of WZ4003 over 16 h. Cell medium was then replaced with either normal DMEM containing no EDTA-PBS-based cell dissociation buffer (−) or EDTA-PBS-based cell dissociation buffer (+) containing the same concentration of WZ4003 that the cells were previously incubated in. Cell detachment was induced with gentle tapping of the plates followed by gentle centrifugation at 70 g for 3 min. Cells were lysed immediately after removal of the supernatant. Endogenous MYPT1 was immunoprecipitated from 0.5 mg of the cell lysates. The immunoprecipitates were immunoblotted for the detection of p-Ser^445 MYPT1 and total MYPT1. The cell lysates were subjected to immunoblotting for the detection of p-Ser^79 ACC and total ACC. Similar results were obtained in three separate experiments. (B) As in (A) except for the HTH-01-015 inhibitor was used. (C–F) As above except that HEK-293 Flp/In T-Rex cells stably expressing the indicated wild-type HA-tagged NUAK1 or drug-resistant HA-tagged NUAK1[A195T] were used. Similar results were obtained in three separate experiments for all data shown on this Figure.

NUAK1[A195T] = molecular target: T1, NUAK1[A195T] (Homo sapiens, UniProt O60285, A195T); assay: GST–NUAK1[A195T] Sakamototide peptide kinase assay; format: biochemical; conditions: for IC50: 200 μM Sakamototide, 100 μM [γ-32P]ATP; for Reduction of potency (resistance) by the NUAK1 A195T mutation: NUAK1[A195T] versus wild-type NUAK1
T1 construct: made in house; host or cells: HEK-293 cells, transient transfection of pEBG2T construct
T1 sequence (O60285 1-661 A195T): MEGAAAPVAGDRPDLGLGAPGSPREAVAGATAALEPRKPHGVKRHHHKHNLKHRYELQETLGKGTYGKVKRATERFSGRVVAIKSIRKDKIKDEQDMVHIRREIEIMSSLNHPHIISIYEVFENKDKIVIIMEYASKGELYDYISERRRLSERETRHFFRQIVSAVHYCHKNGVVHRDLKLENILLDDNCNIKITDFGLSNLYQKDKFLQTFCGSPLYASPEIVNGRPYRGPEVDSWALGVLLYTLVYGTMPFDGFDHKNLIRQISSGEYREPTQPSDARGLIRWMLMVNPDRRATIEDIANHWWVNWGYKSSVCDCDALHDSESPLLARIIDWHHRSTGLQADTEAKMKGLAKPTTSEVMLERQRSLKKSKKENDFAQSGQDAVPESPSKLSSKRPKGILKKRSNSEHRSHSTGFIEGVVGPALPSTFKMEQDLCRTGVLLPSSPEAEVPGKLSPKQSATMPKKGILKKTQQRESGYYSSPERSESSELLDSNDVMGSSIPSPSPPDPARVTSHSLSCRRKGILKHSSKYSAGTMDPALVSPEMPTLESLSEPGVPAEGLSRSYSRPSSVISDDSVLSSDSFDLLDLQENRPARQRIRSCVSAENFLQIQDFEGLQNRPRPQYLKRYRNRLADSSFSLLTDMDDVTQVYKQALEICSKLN
Procedure: Active GST–NUAK1, GST–NUAK1[A195T] and GST–NUAK2 enzymes were purified using glutathione–Sepharose from HEK-293 cell lysates 36–48 h following the transient transfection of pEBG2T mammalian constructs expressing N-terminal GST-tagged NUAK1, NUAK1[A195T] or NUAK2. For peptide kinase assays, 96-well plates were used, and each reaction was performed in triplicate. Each reaction was set up in a total volume of 50 μl containing 100 ng of NUAK1 (wild-type or A195T mutant) or NUAK2 in 50 mM Tris/HCl (pH 7.5), 0.1 mM EGTA, 10 mM magnesium acetate, 200 μM Sakamototide, 0.1 mM [γ-^32P]ATP (450–500 c.p.m./pmol) and the indicated concentrations of inhibitors dissolved in DMSO. After incubation for 30 min at 30°C, reactions were terminated by adding 25 mM (final) EDTA to chelate the magnesium. Then, 40 μl of the reaction mix was spotted on to P81 paper and immersed in 50 mM orthophosphoric acid. Samples were washed three times in 50 mM orthophosphoric acid followed by a single acetone rinse and air drying. The incorporation of [γ-^32P]ATP into Sakamototide was quantified by Cerenkov counting. The values were expressed as a percentage of the DMSO control. IC50 curves were developed and IC50 values were calculated using GraphPad Prism software.

[2] = tested on: panel of 140 protein kinases; assay: Protein kinase profiling, whole panel; format: biochemical; conditions: 1 μM, panel of 140 kinases
Procedure: Kinase inhibitor specificity profiling assays were carried out at The International Centre for Protein Kinase Profiling (http://www.kinase-screen.mrc.ac.uk/) against a panel of 140 protein kinases as described previously. Results are presented as a percentage of kinase activity in DMSO control reactions. Protein kinases were assayed in vitro with 0.1 or 1 μM of the inhibitors and the results are presented as an average of triplicate reactions±S.D. or in the form of comparative histograms.

| SMILES | Inhibitor concentration for maximal suppression of MYPT1 Ser445 phosphorylation [1] [µM] | Suppression of MYPT1 Ser445 phosphorylation (in words) [1] | IC50 (NUAK1[A195T]) [nM] | Reduction of potency (resistance) by the NUAK1 A195T mutation (NUAK1[A195T]) | Selectivity over the other kinases of the panel (in words) [2] |
| --- | --- | --- | --- | --- | --- |
| Cc1nc(Nc2cnn(C3CCNCC3)c2)nc2c1N(C)C(=O)c1cc3ccccc3cc1N2C [HTH-01-015] | 3 to 10 | only led to a partial inhibition | 5890 | ~ 50 fold and ~ 60 fold | did not markedly suppress |
| CCC(=O)Nc1cccc(Oc2nc(Nc3ccc(N4CCN(C)CC4)cc3OC)ncc2Cl)c1 [WZ4003] | 3 to 10 | suppressed MYPT1 phosphorylation in a dose-dependent manner | 900 | ~ 50 fold and 45 fold | did not significantly inhibit |
| CN1C(=O)c2ccccc2N(C)c2nc(Nc3cnn(C4CCNCC4)c3)ncc21 [XMD-17-51] | – | only partially suppressed | 600 | > 50 fold | less selective |
| CN1C(=O)c2cc3ccccc3cc2N(C)c2nc(Nc3cnn(C4CCNCC4)c3)ncc21 [XMD-18-42] | – | only partially suppressed | 1500 | > 50 fold | less selective |

Reference: paper PMC3969223, “Characterization of WZ4003 and HTH-01-015 as selective inhibitors of the LKB1-tumour-suppressor-activated NUAK kinases” (Biochemical Journal, 2013)
